Calls of active or inactive are those of the source. No rule for the calls is given here.
What follows are compounds tested against Serine/threonine-protein kinase mTOR (Homo sapiens) (UniProt P42345) (assay: mTOR FRB domain ligand binding – biophysical, NMR (AID 1648)). Details: NMR binding to FRB domain, chemical shift.
Chain of Serine/threonine-protein kinase mTOR (Homo sapiens) (P42345 2015-2114): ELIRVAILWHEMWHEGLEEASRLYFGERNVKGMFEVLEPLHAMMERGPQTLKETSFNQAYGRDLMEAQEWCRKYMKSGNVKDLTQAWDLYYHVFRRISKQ
In the case of Cc1cc(NC(=O)c2cccc(S(C)(=O)=O)c2)no1, the Kd is reported as > 4 mM (inactive). In the case of O=c1[nH]cc(N2CCCCC2)c(=O)[nH]1, the Kd is reported as > 4 mM (inactive). For COc1cc2c(cc1OC)C(C)NCC2 (stereo unspecified), the Kd was > 4 mM (inactive). CC(C)(O)CC[C@@H](O)[C@](C)(O)C1CC[C@@]2(O)C3=CC(=O)C4C[C@@H](O)[C@@H](O)C[C@]4(C)C3CC[C@]12C (stereo partly specified) was tested, and the Kd was > 4 mM (inactive). CN(C)S(=O)(=O)c1ccc(C(=O)NN)cc1 was tested, and the Kd was > 4 mM (inactive). NC(=O)CN1CC(=O)NC(=O)C1 was tested, and the Kd was > 4 mM (inactive). COc1ccc2c(c1O)-c1c(OC)c(OC)cc3c1[C@H](C2)N(C)CC3 was tested, and the Kd was > 4 mM (inactive). For [O-][n+]1onc2c1CCc1c-2nc(-c2ccccc2)n1O, the Kd was > 4 mM (inactive). In the case of COc1ccc2c(c1)O[C@@H]1COc3cc(OC)c(OC)cc3[C@@H]1C2=O, the Kd is reported as > 4 mM (inactive). In the case of Cc1cc(NC(=O)c2cnn3cccnc23)no1, the Kd is reported as > 4 mM (inactive). For OC1CCNC2CCCCC12 (stereo unspecified), the Kd was > 4 mM (inactive). Cc1ccc(C)c(C(=O)n2cnnc2N)c1 was tested, and the Kd was > 4 mM (inactive). With COc1c(F)c(F)c(-c2csc(N)n2)c(F)c1F the Kd was > 4 mM (inactive). COc1ccc(-c2nc(C)sc2CC(=O)O)cc1 was tested, and the Kd was > 4 mM (inactive). With CC1(C)CCC(C)(C)c2cc(C(=O)O)ccc21 the Kd was > 4 mM (inactive). With NC(=O)c1ccc(SCC(=O)O)c([N+](=O)[O-])c1 the Kd was > 4 mM (inactive). In the case of NC(=O)Cc1nc(-c2ccccc2)cs1, the Kd is reported as > 4 mM (inactive). For Oc1cc(O)c2c(c1)O[C@H](c1cc(O)c(O)c(O)c1)[C@H](O)C2, the Kd was > 4 mM (inactive). In the case of NCCCCNCCCN, the Kd is reported as > 4 mM (inactive). For CSc1nnc2c(n1)OC=Nc1ccccc1-2, the Kd was > 4 mM (inactive). COC(=O)c1ccc2nc[nH]c2c1 was tested, and the Kd was > 4 mM (inactive). In the case of NC(=O)C1CCN(CC2CC=CCC2)CC1 (stereo unspecified), the Kd is reported as > 4 mM (inactive). Cc1nc(-c2cccc(N)c2)cs1 was tested, and the Kd was > 4 mM (inactive). With c1ccc(Cc2nnc3sc(-c4ccncc4)nn23)cc1 the Kd was > 4 mM (inactive). For O=c1ccc2nc3ccccc3c(=O)n2[nH]1, the Kd was > 4 mM (inactive). With CN1CCN(C2CCSC2)CC1 (stereo unspecified) the Kd was > 4 mM (inactive). In the case of N#Cc1cnc(N2CCCCC2)nc1N, the Kd is reported as > 4 mM (inactive). CC(=O)c1cnc(Nc2nc(C)c3ccccc3n2)nc1C was tested, and the Kd was > 4 mM (inactive). With Cc1cc(=O)n2[nH]c(COc3ccccc3)nc2n1 the Kd was > 4 mM (inactive). With O=c1cnnc(SCCc2ccccc2)[nH]1 the Kd was > 4 mM (inactive). With Cc1cn(C(=O)CN2C(=O)c3ccccc3C2=O)c(C)n1 the Kd was > 4 mM (inactive). For CC1(C)C2CC[C@]3(C)C(C(=O)C=C4[C@H]5C[C@@](C)(C(=O)O)CC[C@]5(C)CC[C@]43C)[C@@]2(C)CC[C@@H]1O (stereo partly specified), the Kd was > 4 mM (inactive). CN1C(=O)C2CC=C(Cl)CC2C1=O (stereo unspecified) was tested, and the Kd was > 4 mM (inactive). For CN(C)c1nc(N2CCOCC2)nc(N2CCOCC2)n1, the Kd was > 4 mM (inactive). For Cc1cc(C(=O)N2CCN(c3ncccn3)CC2)c(C)o1, the Kd was > 4 mM (inactive). For N#CCN1C(=O)c2ccccc2S1(=O)=O, the Kd was > 4 mM (inactive). In the case of O=C(Nc1c[nH]c(=O)[nH]c1=O)c1ccccc1F, the Kd is reported as > 4 mM (inactive). With CC1(C)Cn2c(nnc2-c2ccccc2)S1 the Kd was > 4 mM (inactive). CCCCCC(=O)Cc1cc(O)cc(O)c1C(=O)Oc1cc(CC(=O)CCCCC)c(C(=O)O)c(OC)c1 was tested, and the Kd was > 4 mM (inactive). In the case of Cn1nnc2cc(C(=O)NC3=NCCS3)ccc21, the Kd is reported as > 4 mM (inactive). For CC(=O)Oc1ccc(/C=C/c2cc(OC(C)=O)cc(OC(C)=O)c2)cc1, the Kd was > 4 mM (inactive). Nc1nnc(SCc2ccc3c(c2)OCO3)s1 was tested, and the Kd was > 4 mM (inactive). In the case of CC(=O)N1CCN(c2ccc(N)cc2)CC1, the Kd is reported as > 4 mM (inactive). With Nc1ccccc1N=C1CNC(=O)C1 the Kd was > 4 mM (inactive). In the case of CCOc1ccc2nc(NS(C)(=O)=O)sc2c1, the Kd is reported as > 4 mM (inactive). With Clc1ccc2c(N3CCNCC3)ccnc2c1 the Kd was > 4 mM (inactive). In the case of Cc1noc(-c2ccccc2)c1CO, the Kd is reported as > 4 mM (inactive). In the case of NNc1ncnc2sccc12, the Kd is reported as > 4 mM (inactive). In the case of CCNC(=S)NS(=O)(=O)c1ccccc1, the Kd is reported as > 4 mM (inactive). NC(=O)c1ccccc1N1CCCCC1 was tested, and the Kd was > 4 mM (inactive). Nc1cccc(S(=O)(=O)N2CCCCC2)c1 was tested, and the Kd was > 4 mM (inactive). For COc1cc([C@@H]2c3cc4c(cc3[C@H](O)[C@H]3COC(=O)[C@H]23)OCO4)cc(OC)c1OC, the Kd was > 4 mM (inactive). With Nc1nnc(-c2ccncc2)s1 the Kd was > 4 mM (inactive). With Cn1c(=O)c2[nH]cnc2n(C)c1=O the Kd was > 4 mM (inactive). OCc1nc2ccccc2s1 was tested, and the Kd was > 4 mM (inactive). CC(=O)c1sc(NC(=O)C=C(C)C)nc1C was tested, and the Kd was > 4 mM (inactive). In the case of NC(=O)N1CCc2ccccc21, the Kd is reported as > 4 mM (inactive). For CC1(C)C2CC(=O)[C@]3(C)C(CC[C@@]4(C)[C@H](c5ccoc5)OC(=O)C5OC543)[C@@]2(C)[C@@H](O)C[C@H]1O (stereo partly specified), the Kd was > 4 mM (inactive). With CCn1c(C)c(C(C)=O)c(N2CCOCC2)nc1=S the Kd was > 4 mM (inactive). With O=c1[nH]cnc2c1nnn2Cc1ccccc1 the Kd was > 4 mM (inactive). For COc1cc2nc(-c3cccs3)oc(=O)c2cc1OC, the Kd was > 4 mM (inactive).

From PubChem BioAssay AID1648 (Sanford-Burnham Center for Chemical Genomics, 2009)
